The values that follow come from ChEMBL document CHEMBL1143692, “Modulating paclitaxel bioavailability for targeting prostate cancer” (Bioorg Med Chem, 2007).

One data set deals with Serum. Briefly: Degradation in serum at 100 uM after 48 hrs. The class given is functional, Homo sapiens.
In data set [1] the test system is prostate-specific antigen. In words: Half life in Tris buffer at pH 7.8, 37 degC for 48 hrs in presence of prostate-specific antigen at 100 uM. Type of data set: ADME, Prostate gland. Particulars: Tris buffer with prostate-specific antigen.
A further data set deals with Plasma. Briefly: Degradation in plasma at 100 uM after 48 hrs. The class given is functional, Homo sapiens.
A short description of data set [2]: Half life in serum at 100 uM after 48 hrs at 37 degC. The class given is ADME, cell-free. Conditions: human.
Data set [3] has as its system TSU. Briefly: Growth inhibition of human TSU cells at 1 nM. The class given is functional.
The species entered for data set [4] is Homo sapiens. In words: Activity at prostate-specific antigen hydrolysis at pH 7.8. The class given is tissue-based. Conditions: Prostate gland.
The species named for data set [5] is Homo sapiens. In words: Ratio of […] for prostate-specific antigen. Particulars: Prostate gland.
In the next data set the test system is CWR22R. In words: Toxicity against human CWR22Rv1 cells upto 100 uM. The class given is functional, cell-based.
For data set [6], the system named is TSU. Briefly: Toxicity against human TSU cells upto 100 uM. The class given is functional, cell-based.
Data set [7] has as its system DU-145. Briefly: Toxicity against human DU145 cells upto 100 uM. Type of data set: functional, cell-based.
Data set [8] relates to DU-145. In words: Growth inhibition of human DU145 cells. Type of data set: functional, cell-based.
Data set [9] in a line: Cytotoxicity against human CWR22Rv1 cells after 96 hrs. The class given is functional, cell-based, CWR22R. Particulars: 22Rv1, 96 h.
In data set [10] the test system is TSU. In words: Growth inhibition of human TSU cells. Type of data set: functional, cell-based.
Data set [11] is described as follows: Growth inhibition of human CWR22Rv1 cells. Type of data set: functional, cell-based, CWR22R. Conditions: 22Rv1.

Structures are written as SMILES. pIC50: −log10 of the molar value. Starred links: 1 amine or outer side, 2 acyl side, 3 side chain; linkers in the order of their positions; H or OH if unused. Residues, ends and D or L forms follow the SMILES beside them. *: point of attachment. Morpholide = C1CN(*)CCO1; CO = O=C([*:1])[*:2] Where only a bound is given, the exact number is not on record here.

The compound `CC(=O)O[C@H]1C(=O)[C@]2(C)[C@@H](O)C[C@@H]3OC[C@]3(OC(C)=O)[C@@H]2[C@H](OC(=O)c2ccccc2)[C@]2(O)C[C@@H](OC(=O)[C@H](OC(=O)OCc3ccc(NC(=O)[C@H](CCC(N)=O)NC(=O)[C@H](CC(C)C)NC(=O)[C@H](CCCCN)NC(=O)[C@H](CO)NC(=O)[C@H](CO)NC(=O)[C@H](Cc4c[nH]cn4)NC(=O)N4CCOCC4)cc3)[C@@H](NC(=O)c3ccccc3)c3ccccc3)C(C)=C1C2(C)C` showed an Activity in the data set with Serum of 87%. Further, the values for the half-life at 100 µM in data set [1] and in data set [2] were 12 h and 1 h, respectively. Moreover, in the data set with Plasma, the Percent degraded was 10%. The inhibition at 0.001 µM with TSU [3] was determined as 30%.
On to `CC(=O)O[C@H]1C(=O)[C@@]2(C)[C@H]([C@H](OC(=O)c3ccccc3)[C@]3(O)C[C@H](OC(=O)[C@H](O)[C@@H](NC(=O)c4ccccc4)c4ccccc4)C(C)=C1C3(C)C)[C@]1(OC(C)=O)CO[C@@H]1C[C@@H]2O` [PACLITAXEL], for which the inhibition at 0.001 µM with TSU [3] was 90%.
In the case of `CC(=O)O[C@H]1C(=O)[C@]2(C)[C@@H](OC(=O)OCc3ccc(NC(=O)[C@H](CCC(N)=O)NC(=O)[C@H](CC(C)C)NC(=O)[C@H](CCCCN)NC(=O)[C@H](CO)NC(=O)[C@H](CO)NC(=O)[C@H](Cc4c[nH]cn4)NC(=O)N4CCOCC4)cc3)C[C@@H]3OC[C@]3(OC(C)=O)[C@@H]2[C@H](OC(=O)c2ccccc2)[C@]2(O)C[C@@H](OC(=O)[C@H](O)[C@@H](NC(=O)c3ccccc3)c3ccccc3)C(C)=C1C2(C)C`, in the data set filed under Homo sapiens [4], the Km turned out to be 216 µM and the kcat was determined as 0.00585 s⁻¹. The same compound yielded an Activity in the data set on Serum of 92%. Besides, in [1], the half-life at 100 µM is 14 h. Further, the kcat/Km in the data set filed under Homo sapiens [5] turned out to be 27 M⁻¹ s⁻¹. In the data set with Plasma, this compound returned a Percent degraded of 7%. In [2], this compound had a half-life at 100 µM of 1.5 h. Moreover, the inhibition at 0.001 µM in the data set with TSU [3] turned out to be 30%.
Turning to `NCCCC[C@H](NC(=O)[C@H](CO)NC(=O)[C@H](CO)NC(=O)N1CCOCC1)C(=O)N[C@@H](Cc1ccc(O)cc1)C(=O)N[C@@H](CCC(N)=O)C(=O)O` ({Morpholide-CO}-SSKYQ-OH), the Activity entry in the data set on CWR22R, in the data set with TSU [6] and with DU-145 [7] was “Not toxic” each time.
For the compound `CC(=O)O[C@H]1C(=O)[C@]2(C)[C@@H](O)C[C@@H]3OC[C@]3(OC(C)=O)[C@@H]2[C@H](OC(=O)c2ccccc2)[C@]2(O)C[C@@H](OC(=O)[C@H](OC(=O)N(C)CCNC(=O)[C@H](CCC(N)=O)NC(=O)[C@H](Cc3ccc(O)cc3)NC(=O)[C@H](CCCCN)NC(=O)[C@H](CO)NC(=O)[C@H](CO)NC(=O)N3CCOCC3)[C@@H](NC(=O)c3ccccc3)c3ccccc3)C(C)=C1C2(C)C`, the pIC50 with DU-145 [8] is above 9.00; in [9] it was 6.00; in the data set with TSU [10] it was above 9.00; in data set [11] it was above 9.00. This compound displayed an Activity in the data set with Serum below 2%. Besides, in data set [1], the half-life at 100 µM was 6 h. Further, the Percent degraded with Plasma was below 3%.
`CC(=O)O[C@H]1C(=O)[C@]2(C)[C@@H](O)C[C@@H]3OC[C@]3(OC(C)=O)[C@@H]2[C@H](OC(=O)c2ccccc2)[C@]2(O)C[C@@H](OC(=O)[C@H](OC(=O)N(C)CCNC(=O)[C@H](CCC(N)=O)NC(=O)[C@H](CC(C)C)NC(=O)[C@H](CCCCN)NC(=O)[C@H](CO)NC(=O)[C@H](CO)NC(=O)[C@H](Cc3c[nH]cn3)NC(=O)N3CCOCC3)[C@@H](NC(=O)c3ccccc3)c3ccccc3)C(C)=C1C2(C)C` had an Activity with Serum below 2%. In addition, the half-life at 100 µM in data set [1] is 10 h. Also, the Percent degraded with Plasma is reported as below 3%.

What is called half-life is how long it takes for the measured level to halve. Broadly, the inhibition is the change of the read-out against control, counted positive when it falls. One may read the Km as the substrate concentration at which the rate is half of its maximum. As usually defined, the kcat is the maximal rate divided by the concentration of active sites. In general, kcat/Km refers to the second-order rate constant that governs catalysis at low substrate concentration. Usually pIC50 stands for the negative decadic logarithm of the IC50, by convention in mol/L.
